In patent US20240132513A1, “BENZAZEPINE DERIVATIVES, COMPOSITIONS, AND METHODS FOR TREATING COGNITIVE IMPAIRMENT” (AGENEBIO, INC., priority 2022, published 2024):
Where two headings read alike, the source gives them in different places.

Tests used:
[1] = target: α5β3γ2 GABAA R (Homo sapiens, UniProt P18507+P31644); assay: Binding activity on GABAA R: inhibition of [3H]Ro15-1788 binding, α5 containing receptor
How it was run: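 Displacement of [3H]Ro15-1788 (flumazenil) measured at 4 °C over 1 h using 0.2 mg/ml membrane protein from Ltk cells carrying α5β3γ2 GABAA receptors, expression induced with 0.5 μM dexamethasone for 1 day; buffer pH 7.4 KH2PO4/EDTA/KCl. 10 μM diazepam defined nonspecific binding; filter-trapped radioactivity counted, in triplicate.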

[2] = target: T1, GABAA R (α5β2γ2) (Homo sapiens, UniProt P18507+P31644); assay: Positive allosteric modulator activity: potentiation of EC20 GABA current in oocytes; format: cell-based
T1 construct: expressed in transfected cells
T1 sequence (P31644 32-462): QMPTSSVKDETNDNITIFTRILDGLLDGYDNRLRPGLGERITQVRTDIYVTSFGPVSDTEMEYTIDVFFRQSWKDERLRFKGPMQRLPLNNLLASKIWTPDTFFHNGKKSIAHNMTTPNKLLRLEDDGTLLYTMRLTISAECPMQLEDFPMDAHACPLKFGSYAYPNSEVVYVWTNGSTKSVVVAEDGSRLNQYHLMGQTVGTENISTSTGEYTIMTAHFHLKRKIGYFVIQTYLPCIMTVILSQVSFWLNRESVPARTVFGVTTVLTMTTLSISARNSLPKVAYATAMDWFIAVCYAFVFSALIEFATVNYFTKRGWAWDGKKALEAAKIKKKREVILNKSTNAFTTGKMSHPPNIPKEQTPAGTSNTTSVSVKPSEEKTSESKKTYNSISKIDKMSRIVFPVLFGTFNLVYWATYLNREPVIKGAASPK
T1 sequence (P47870 25-512 partner limits assumed): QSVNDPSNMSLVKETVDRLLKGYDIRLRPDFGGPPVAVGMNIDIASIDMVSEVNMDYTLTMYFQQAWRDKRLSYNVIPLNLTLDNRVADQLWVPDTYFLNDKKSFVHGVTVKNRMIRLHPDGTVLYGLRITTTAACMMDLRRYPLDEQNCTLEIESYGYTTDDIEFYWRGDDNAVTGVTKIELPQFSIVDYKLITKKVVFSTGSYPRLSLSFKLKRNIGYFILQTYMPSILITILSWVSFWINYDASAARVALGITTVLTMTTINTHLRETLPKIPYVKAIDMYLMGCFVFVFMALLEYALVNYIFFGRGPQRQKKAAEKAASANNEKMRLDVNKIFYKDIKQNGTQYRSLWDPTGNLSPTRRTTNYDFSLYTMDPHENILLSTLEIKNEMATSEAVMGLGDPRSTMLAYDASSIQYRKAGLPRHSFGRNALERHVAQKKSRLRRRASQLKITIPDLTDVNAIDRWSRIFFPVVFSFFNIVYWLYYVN
T1 sequence (P18507 40-475): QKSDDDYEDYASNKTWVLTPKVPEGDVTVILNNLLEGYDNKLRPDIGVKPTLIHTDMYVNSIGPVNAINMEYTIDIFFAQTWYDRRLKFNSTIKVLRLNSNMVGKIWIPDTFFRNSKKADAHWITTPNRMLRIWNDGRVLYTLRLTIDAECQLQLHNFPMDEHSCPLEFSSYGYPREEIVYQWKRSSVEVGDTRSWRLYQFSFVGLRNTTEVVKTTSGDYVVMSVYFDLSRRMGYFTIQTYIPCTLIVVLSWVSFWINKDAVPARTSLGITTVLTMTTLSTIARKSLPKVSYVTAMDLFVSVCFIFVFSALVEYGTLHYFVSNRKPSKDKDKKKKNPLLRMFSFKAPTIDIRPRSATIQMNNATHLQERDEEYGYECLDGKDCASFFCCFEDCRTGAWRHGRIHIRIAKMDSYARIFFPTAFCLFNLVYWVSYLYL
Description: On day 1, 1 ng/32 nL of GABAA α5β2γ2 cDNA was injected into one oocyte. Test starts on day 2. The cDNA injected to the oocytes was a mix of alpha, beta and gamma, their ratio is 1:1:10 (by weight) and the total weight of the mixed 3 subunits to be injected in one oocyte was 1 ng in 32 nl volume. The injected oocytes can also be tested on day 3. In such case, the cDNA amount injected to the oocytes should be reduced by 20%.
Compounds of the present disclosure were tested using the following procedures.
8 oocytes were placed in 8 chambers of OpusXpress and superfused with Modified Barth's Saline (MBS) at 3 mL/min. Glass electrodes back-filled with 3M KCl (0.5-3 megaohms) were used. Membrane potential of oocytes was voltage-clamped at −60 mV. • 2).
Control Test (Diazepam or Methyl 3,5-Diphenylpyridazine-4-Carboxylate) • 1). New oocytes was used to run new test. • 2). […] Oocytes were washed with MBS for 5-10 min. • 4). […] Itest was divided by IGABA to obtain potentiation (%).
Test Compounds at Multiple Doses • 1). Repeat the above steps 1), 2) and 3) in the control test. • 2). […] Divide Itest by IGABA to obtain potentiation (%). • 3). Discard all tested oocytes, new oocytes were used and the above steps 1) and 2) were repeated to test second concentration of the same compound. Each oocyte was used for only one concentration test for a single test compound. The steps were repeated for other test compounds.

[3] = read-out: GABA α5 Functional Data: potentiation, @ 100 nM, EC20 GABA, ranges of the column heads
[4] = ranges of the column heads, [3H]Ro15-1788, Ltk cell membranes
[5] = read-out: GABA α5 Functional Data: potentiation

Sequence of α5β3γ2 GABAA R (P31644 32-462): as the sequence (P31644 32-462) above
Sequence of α5β3γ2 GABAA R (P28472 26-473 partner): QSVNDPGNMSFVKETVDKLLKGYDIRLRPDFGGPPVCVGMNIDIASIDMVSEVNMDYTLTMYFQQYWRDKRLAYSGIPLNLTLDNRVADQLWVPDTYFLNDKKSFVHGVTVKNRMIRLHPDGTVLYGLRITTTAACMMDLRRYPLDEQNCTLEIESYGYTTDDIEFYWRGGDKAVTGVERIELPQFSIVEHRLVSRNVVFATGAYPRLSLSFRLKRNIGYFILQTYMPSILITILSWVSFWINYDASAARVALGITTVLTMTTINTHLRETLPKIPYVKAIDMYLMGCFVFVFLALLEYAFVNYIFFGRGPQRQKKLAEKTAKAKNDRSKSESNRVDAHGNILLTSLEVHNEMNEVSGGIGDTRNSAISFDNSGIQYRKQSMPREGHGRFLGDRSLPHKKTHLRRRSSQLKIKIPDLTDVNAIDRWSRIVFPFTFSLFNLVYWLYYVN
Sequence of α5β3γ2 GABAA R (P18507 40-475): as the sequence (P18507 40-475) above

| Structure (SMILES) | Ki [1] | activation at 0.1 µM [2, 3] | Ki [1, 4] | activation at 0.1 µM [2, 5] |
| --- | --- | --- | --- | --- |
| Cn1cc2c(n1)-c1cc(Cl)ccc1-n1cnc(-c3noc(C(C)(C)C)n3)c1C2 [Compound 143] | < 100 nM | 5 to 20% | – | – |
| COc1ccc2c(c1)-c1nn(C(C)C)cc1Cc1c(-c3nc(C4CC4)no3)ncn1-2 [Compound 169] | – | – | < 100 nM | 5 to 20% |
| CCn1cc2c(n1)-c1cc(OC)ccc1-n1cnc(-c3nc(C(C)C)no3)c1C2 [Compound 151] | < 100 nM | 5 to 20% | – | – |
| COc1ccc2c(c1)-c1nn(C)cc1Cc1c(-c3nc(C4CCOCC4)no3)ncn1-2 [Compound 220] | < 100 nM | 20 to 50% | – | – |
| FC(F)(F)COCc1nc(-c2ncn3c2Cc2cn(CC4CCCO4)nc2-c2cc(Cl)ccc2-3)no1 (centres unmarked) [Compound 309] | < 100 nM | 5 to 20% | – | – |
| CC(C)c1nc(-c2ncn3c2Cc2cn(C(C)C)nc2-c2cc(Cl)ccc2-3)no1 [Compound 150] | < 100 nM | 20 to 50% | – | – |
| COc1ccc2c(c1)-c1c(cnn1C)Cc1c(-c3noc(C4(F)CC4)n3)ncn1-2 [Compound 206] | < 100 nM | 20 to 50% | – | – |
| COc1ccc2c(c1)-c1[nH]ncc1Cc1c(C#Cc3ccccn3)ncn1-2 [Compound 90] | – | – | < 100 nM | 20 to 50% |
| COc1ccc2c(c1)-c1nn(C)cc1Cc1c(-c3noc(C(C)(C)C)n3)ncn1-2 [Compound 146] | < 100 nM | 5 to 20% | – | – |
| Clc1ccc2c(c1)-c1nn(CC3COC3)cc1Cc1c(-c3nc(C4CC4)no3)ncn1-2 [Compound 224] | < 100 nM | 20 to 50% | – | – |
| Clc1ccc2c(c1)-c1[nH]ncc1Cc1c(-c3ncco3)ncn1-2 [Compound 55] | < 100 nM | 5 to 20% | – | – |
| Cc1nc(-c2ncn3c2Cc2cn[nH]c2-c2cc(Cl)ccc2-3)no1 [Compound 86] | < 100 nM | 5 to 20% | – | – |
| FC(F)(F)c1noc(-c2ncn3c2Cc2cn[nH]c2-c2cc(Cl)ccc2-3)n1 [Compound 106] | < 100 nM | 20 to 50% | – | – |
| CCn1cc2c(n1)-c1cc(Cl)ccc1-n1cnc(-c3noc(COC(C)(C)C)n3)c1C2 [Compound 197] | < 100 nM | 5 to 20% | – | – |
| COCc1noc(-c2ncn3c2Cc2cn(C4CCOC4)nc2-c2cc(Cl)ccc2-3)n1 (centres unmarked) [Compound 275] | < 100 nM | 5 to 20% | – | – |
| CCn1ncc2c1-c1cc(Cl)ccc1-n1cnc(-c3nc(C4CC4)no3)c1C2 [Compound 139] | – | – | < 100 nM | 20 to 50% |
| CC(C)n1cc2c(n1)-c1cc(Cl)ccc1-n1cnc(-c3noc(C4COCCO4)n3)c1C2 (centres unmarked) [Compound 268] | < 100 nM | 20 to 50% | – | – |
| FC(F)(F)c1noc(-c2ncn3c2Cc2cn(C4CCOC4)nc2-c2cc(Cl)ccc2-3)n1 (centres unmarked) [Compound 228] | < 100 nM | 5 to 20% | – | – |
| Cn1cc2c(n1)-c1cc(Cl)ccc1-n1cnc(-c3noc(C4(C)COC4)n3)c1C2 [Compound 225] | < 100 nM | 20 to 50% | – | – |
| COCCn1cc2c(n1)-c1cc(Cl)ccc1-n1cnc(-c3nc(C(C)C)no3)c1C2 [Compound 111] | – | – | < 100 nM | 20 to 50% |
| CCn1cc2c(n1)-c1cc(Cl)ccc1-n1cnc(-c3noc(C4COCCO4)n3)c1C2 (centres unmarked) [Compound 195] | < 100 nM | 5 to 20% | – | – |
| CC(C)n1cc2c(n1)-c1cc(Cl)ccc1-n1cnc(-c3ncco3)c1C2 [Compound 167] | < 100 nM | 5 to 20% | – | – |
| COC(C)(C)c1noc(-c2ncn3c2Cc2cn(CC4CCCO4)nc2-c2cc(Cl)ccc2-3)n1 (centres unmarked) [Compound 280] | < 100 nM | 20 to 50% | – | – |
| COCc1nc(-c2ncn3c2Cc2cn(C)nc2-c2cc(Cl)ccc2-3)no1 [Compound 155] | < 100 nM | 20 to 50% | – | – |
| COCc1nc(-c2ncn3c2Cc2cn(CC4CCCO4)nc2-c2cc(Cl)ccc2-3)no1 (centres unmarked) [Compound 304] | < 100 nM | 5 to 20% | – | – |
| COC(C)(C)c1nc(-c2ncn3c2Cc2cn(CC4CCCO4)nc2-c2cc(Cl)ccc2-3)no1 (centres unmarked) [Compound 306] | < 100 nM | 5 to 20% | – | – |
| Cn1cc2c(n1)-c1cc(Cl)ccc1-n1cnc(-c3nnc(C4CCOC4)o3)c1C2 (centres unmarked) [Compound 212] | – | – | < 100 nM | 5 to 20% |
| COc1ccc2c(c1)-c1nn(CC3COC3)cc1Cc1c(-c3nc(C4CC4)no3)ncn1-2 [Compound 226] | – | – | < 100 nM | 5 to 20% |

| Structure (SMILES) | Ki [1] | activation at 0.1 µM [2, 3] | Ki [1, 4] | activation at 0.1 µM [2, 5] |
| --- | --- | --- | --- | --- |
| COc1ccc2c(c1)-c1nn(C)cc1Cc1c(-c3noc(C(F)(F)F)n3)ncn1-2 [Compound 130] | < 100 nM | > 50% | – | – |
| COc1ccc2c(c1)-c1nn(C)cc1Cc1c(-c3noc(COCC(F)(F)F)n3)ncn1-2 [Compound 183] | < 100 nM | > 50% | – | – |
| Clc1ccc2c(c1)-c1nn(CC3CCCO3)cc1Cc1c(-c3nc(C4CCOC4)no3)ncn1-2 (centres unmarked) [Compound 281] | < 100 nM | 5 to 20% | – | – |
| COCCn1cc2c(n1)-c1cc(OC)ccc1-n1cnc(-c3nc(COC)no3)c1C2 [Compound 300] | < 100 nM | 20 to 50% | – | – |
| CCOC(=O)c1ncn2c1Cc1cnoc1-c1cc(Cl)ccc1-2 [Compound 57] | – | – | < 100 nM | 5 to 20% |
| CCn1cc2c(n1)-c1cc(Cl)ccc1-n1cnc(-c3nc(C4CCOC4)no3)c1C2 (centres unmarked) [Compound 192] | – | – | < 100 nM | 20 to 50% |
| Clc1ccc2c(c1)-c1nn(CC3CCCO3)cc1Cc1c(-c3noc(C4COCCO4)n3)ncn1-2 (centres unmarked) [Compound 305] | < 100 nM | 5 to 20% | – | – |
| CCn1cc2c(n1)-c1cc(OC)ccc1-n1cnc(-c3noc(C(F)(F)F)n3)c1C2 [Compound 158] | – | – | < 100 nM | 5 to 20% |
| COc1ccc2c(c1)-c1nn(C)cc1Cc1c(-c3cnn(Cc4ccccn4)c3)ncn1-2 [Compound 282] | < 100 nM | 5 to 20% | – | – |
| Cn1cc2c(n1)-c1cc(Cl)ccc1-n1cnc(-c3nc(C(C)(C)C)no3)c1C2 [Compound 113] | < 100 nM | 20 to 50% | – | – |
| COc1ccc2c(c1)-c1[nH]ncc1Cc1c(C#CC(C)(C)C)ncn1-2 [Compound 73] | < 100 nM | 5 to 20% | – | – |
| COCc1nc(-c2ncn3c2Cc2cn(C)nc2-c2cc(OC)ccc2-3)no1 [Compound 153] | – | – | < 100 nM | 20 to 50% |
| Cn1cc2c(n1)-c1cc(Cl)ccc1-n1cnc(-c3noc(C4(F)CC4)n3)c1C2 [Compound 218] | < 100 nM | 20 to 50% | – | – |
| Cn1cc2c(n1)-c1cc(Cl)ccc1-n1cnc(-c3nc(C(F)(F)F)no3)c1C2 [Compound 122] | < 100 nM | 5 to 20% | – | – |
| Clc1ccc2c(c1)-c1[nH]ncc1Cc1c(-c3nc(C4CCCCC4)no3)ncn1-2 [Compound 123] | < 100 nM | 5 to 20% | – | – |
| Cc1noc(-c2ncn3c2Cc2cn(CC4CCOC4)nc2-c2cc(Cl)ccc2-3)n1 (centres unmarked) [Compound 161] | < 100 nM | 20 to 50% | – | – |
| CC(C)n1cc2c(n1)-c1cc(Cl)ccc1-n1cnc(-c3nc(C4CC4)no3)c1C2 [Compound 154] | < 100 nM | 5 to 20% | – | – |
| CC(C)c1nc(-c2ncn3c2Cc2cn[nH]c2-c2cc(Cl)ccc2-3)no1 [Compound 84] | < 100 nM | 5 to 20% | – | – |
| Cn1cc2c(n1)-c1cc(Cl)ccc1-n1cnc(-c3cnn(Cc4ccccc4)c3)c1C2 [Compound 163] | < 100 nM | 5 to 20% | – | – |
| Clc1ccc2c(c1)-c1[nH]ncc1Cc1c(-c3cnco3)ncn1-2 [Compound 93] | – | – | < 100 nM | 5 to 20% |
| Cc1nnc(-c2ncn3c2Cc2cn(C)nc2-c2cc(Cl)ccc2-3)o1 [Compound 209] | < 100 nM | 20 to 50% | – | – |
| COc1ccc2c(c1)-c1nn(CC3CCCO3)cc1Cc1c(-c3noc(COC(C)C)n3)ncn1-2 (centres unmarked) [Compound 301] | < 100 nM | 20 to 50% | – | – |
| COc1ccc2c(c1)-c1nn(C3CCOC3)cc1Cc1c(-c3nc(C4CC4)no3)ncn1-2 (centres unmarked) [Compound 247] | < 100 nM | 20 to 50% | – | – |
| COc1ccc2c(c1)-c1[nH]ncc1Cc1c(C3=N[C@H](c4ccccc4)CO3)ncn1-2 [Compound 14] | < 100 nM | 5 to 20% | – | – |
| COC(C)(C)c1noc(-c2ncn3c2Cc2cn(C)nc2-c2cc(Cl)ccc2-3)n1 [Compound 233] | – | – | < 100 nM | 5 to 20% |
| COCc1noc(-c2ncn3c2Cc2cn(CCOC(F)(F)F)nc2-c2cc(OC)ccc2-3)n1 [Compound 315] | < 100 nM | 20 to 50% | – | – |
| COc1ccc2c(c1)-c1nn(C)cc1Cc1c(-c3noc(C4COC4)n3)ncn1-2 [Compound 202] | < 100 nM | 20 to 50% | – | – |
